Entries after “also recorded” stand apart in the source; their conditions may differ. Read-outs that look alike come from different tables or passages of the source.
Key:
[1] = biological target: T1, D3 dopamine receptor (Homo sapiens (Human), UniProt P35462); assay: D3 receptor tolerance and SRT: GIRK response to repeated agonist application in AtT-20 cells; assay type: cell-based; settings: AtT-20 cells expressing human D3, 100-300 nM agonist, repeated ~60 s applications
Description: To determine whether a compound abolishes the D3 receptor tolerance and SRT, the D3 receptor-activated GIRK response to two consecutive treatments of the lead compound is measured. […] Drug solutions were delivered to cells via a multi-barreled micropipette array. The current responses were normalized to the cell capacitance, to account for variation in cell size.
To identify agonists that might modulate D3 receptor tolerance and SRT properties, ten distinct agonists were screened for their ability to induce tolerance and SRT, using the D3 receptor-GIRK channel signaling pathway as an assay.
Target sequence in this assay (P35462 other isoform, or with tags, fused parts or gaps): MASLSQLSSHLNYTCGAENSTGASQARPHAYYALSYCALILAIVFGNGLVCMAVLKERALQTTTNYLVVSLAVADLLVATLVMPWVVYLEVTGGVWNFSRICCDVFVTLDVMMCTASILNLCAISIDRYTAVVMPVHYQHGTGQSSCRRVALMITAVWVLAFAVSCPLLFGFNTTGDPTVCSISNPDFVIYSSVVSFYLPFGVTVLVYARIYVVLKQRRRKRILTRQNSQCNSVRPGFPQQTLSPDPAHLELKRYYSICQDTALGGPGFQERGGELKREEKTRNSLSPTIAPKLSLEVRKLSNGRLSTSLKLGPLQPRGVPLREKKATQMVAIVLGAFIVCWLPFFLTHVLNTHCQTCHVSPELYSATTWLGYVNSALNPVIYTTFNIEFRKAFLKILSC

[2] = test system: intrastriatal 6-OHDA lesioned rats; assay: Levodopa-induced dyskinesia (AIMs score) in intrastriatal 6-OHDA lesioned rats; assay type: in vivo, rat; settings: PBZI 17 mg/kg sc; for effect on levodopa-induced dyskinesia (AIMs score): given 10 minutes before 6 mg/kg levodopa, ES609 20 mg/kg
Description: In particular, rats in which unilateral intrastriatal lesion is induced by injection of 6-OHDA (7 μg) at three different sites in the ventrolateral striatum are used. The coordinates for the three injection sites are, in mm: injection site 1: AP: +1.0; ML: −3.0; DV: −5.0; injection site 2: AP: −0.1; ML: −3.7; DV: −5.0; injection site 3: AP: −1.2; ML: −4.5; DV: −5.0. Anterior-posterior (AP) and mediolateral (ML) coordinates are from bregma. The dorso-ventral (DV) coordinates are from dura. The toothbar location is 0.
Seven and half weeks after the lesion, chronic levodopa treatment (6 mg/kg, single dose per day given with 15 mg/kg benserazide) is initiated. Stepping test and AIMs scores are determined on day 1, 8, 10, 17 and 24 after the initiation of chronic levodopa treatment. […] AIMs are scored using a rating scale based on frequency and severity of the dyskinetic symptoms. It should be noted that the rank order of the various AIMs components in terms of frequency and severity in the rat model is: limb>orolingual=axial>>locomotor. This lesion model has been used to test the effect of PBZI on LID (Example 3).
FIG. 13A illustrates the effect of control, PD128907 (a tolerance inducing D2/D3 agonist) and PBZI (a non tolerance inducing D3/D3 agonist) on the total AIMs score (includes locomotor, axial, limb and orolingual) over time of a day 17 (chronic L-DOPA phase) lesioned animal.

[3] = test system: monoamine transporter; assay: Monoamine transporter uptake activity; assay type: cell-based; settings: FIG. 23
[4] = biological target: T1, D3 dopamine receptor; settings: cited from earlier work
Target sequence in this assay (P35462 whole entry): as the sequence (P35462 other isoform, or with tags, fused parts or gaps) above, with S9G counted along it

[5] = biological target: T1, D3 dopamine receptor; assay: D3 receptor tolerance and SRT: GIRK response to repeated agonist application in AtT-20 cells; assay type: cell-based; settings: 1000 nM PBZI applied simultaneously with 100 nM dopamine
Target sequence in this assay (P35462 other isoform, or with tags, fused parts or gaps): as the sequence (P35462 other isoform, or with tags, fused parts or gaps) above

[6] = biological target: T1, D3 dopamine receptor; assay: Current clamp recording of spontaneous action potentials in AtT-20 cells expressing D3; assay type: cell-based; settings: 100 nM dopamine or 300 nM PBZI
Target sequence in this assay (P35462 other isoform, or with tags, fused parts or gaps): as above

[7] = biological target: D2S (Homo sapiens (Human), UniProt P14416); settings: Scheideler et al., 1997; cited from earlier work
Sequence of D2S (P14416 other isoform, or with tags, fused parts or gaps): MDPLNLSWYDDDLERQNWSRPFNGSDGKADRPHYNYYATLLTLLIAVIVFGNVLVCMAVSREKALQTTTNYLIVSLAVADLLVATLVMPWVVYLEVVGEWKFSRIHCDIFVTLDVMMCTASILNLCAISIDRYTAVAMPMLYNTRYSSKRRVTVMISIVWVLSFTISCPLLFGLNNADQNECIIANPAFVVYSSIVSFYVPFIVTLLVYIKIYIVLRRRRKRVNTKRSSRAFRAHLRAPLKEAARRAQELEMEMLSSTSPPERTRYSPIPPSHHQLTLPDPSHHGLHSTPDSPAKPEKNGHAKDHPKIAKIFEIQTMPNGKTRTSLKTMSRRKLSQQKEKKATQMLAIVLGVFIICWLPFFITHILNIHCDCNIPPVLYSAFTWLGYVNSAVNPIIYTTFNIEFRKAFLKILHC

[8] = biological target: D4.2; settings: Scheideler et al., 1997; cited from earlier work
[9] = Water solubility; assay type: physicochemical
[10] = test system: D1-like receptors; settings: cited from earlier work
[11] = test system: c-fos expression; settings: in vivo; cited from earlier work
[12] = test system: Balb/c mice; assay: Locomotor activity (open field, TruScan) in Balb/c mice
Description: Therefore, three different doses of the lead compound are administered and their effects on locomotor activity are determined. The dosage is determined based on the functional EC50 values and binding affinity of the lead compound from the cell-based assays described above. The compound is administered to Balb/c mice and locomotor activity is monitored using the TruScan Automated Behavioral Monitoring system (Coulborn Instruments).
A total of 12 young adult, male Balb/c mice were obtained form Charles River, Inc. (Wilmington, Mass.), and housed in groups of four in standard cages. The animals were maintained on a 12 hour light/12 hour dark cycle and permitted ad lib access to food and water. Experiments were conducted during the animal's light phase. […] For PD128907, separate groups of Balb/c mice received subcutaneous injections of saline (n=4) or 0.05 or 0.4 mg/kg PD128907 (n=4, for each). Locomotion (‘distance traveled’) scores of drug-injected animals were collapsed across 10-min intervals and for comparison purposes were normalized to saline injected animals (FIG. 12A). The experiment was conducted on three separate occasions.

Row | SMILES | D3 receptor tolerance and SRT properties (agonist-induced GIRK response) [1] | D3 receptor tolerance and SRT properties (agonist-induced GIRK response) ([1]; listed as ES 609) | effect on levodopa-induced dyskinesia (AIMs score) [2] | monoamine transporter uptake activity [3] | D3 receptor tolerance and SRT properties (agonist-induced GIRK response) ([1]; listed as cis-80H-PBZI) | Ki ([4]; D3, Scheideler et al., 1997, read-out: Ki) [nM] | Ki ([4]; source not stated, read-out: D3 dopamine receptor binding affinity Ki) [nM] | competition with dopamine to block development of tolerance and SRT [5] | inhibition of spontaneous action potentials on repeated application [6] | Ki [7] [nM] | Ki [8] [nM] | water solubility [9] | dyskinesia induced by the compound itself, before levodopa administration ([2]; PD128907 0.1 mg/kg sc) | Binding at D1-like receptors and a panel of other neurotransmitter receptors, ion channels and transporters [10] | c-fos expression in medial prefrontal cortex and shell region of nucleus accumbens [11] | effect on locomotion ([12]; 1 mg/kg sc) | reduction of locomotion ([12]; 10 mg/kg sc, within 20-min) | duration of hypoactivity post-injection ([12]; PBZI 10 mg/kg sc, PD128907 0.4 mg/kg sc) [min] | locomotor response ([12]; sc, PBZI 10 mg/kg, PD128907 0.05-0.4 mg/kg, normalized to saline)
1 | CC(N)CCc1ccccc1Cl (stereo not drawn) [ES609] | did not induce tolerance and SRT; also recorded: did not show tolerance and SRT | also abolished D3 receptor tolerance and SRT properties | improve levodopa-induced dyskinesia | inhibits monoamine transporter uptake activity |  |  |  |  |  |  |  |  |  |  |  |  |  |  | 
2 | CCCN1CC[C@@H]2c3cc(O)ccc3CC[C@@H]21 [PBZI, (3aS,9bR)-3-propyl-1,2,3a,4,5,9b-hexahydrobenzo[e]indol-8-ol] | does not elicit tolerance and SRT properties; also recorded: abolished both tolerance and SRT properties; also recorded: did not induce tolerance; also recorded: does not induce tolerance and SRT; also recorded: did not show either tolerance or SRT properties; also recorded: completely abolished the receptors' tolerance and SRT properties |  | reduces AIM scores; also recorded: significantly reduced the AIM score; also recorded: delayed the onset of levodopa induced dyskinesia; also recorded: delayed and reduced the dyskinesia induced by levodopa; also recorded: improve levodopa-induced dyskinesia |  | abolished the tolerance property | 27 | 22 | able to compete effectively with dopamine; also recorded: blocked the development of tolerance and SRT | inhibited spontaneous action potentials during the first application and subsequent applications; also recorded: inhibited the spontaneous action potentials during the first and second treatment | 1800 | 280 | water soluble | did not induce dyskinesia | negligible | specific increases in c-fos expression | no significant effect | approximately 90% | 40 | only elicit hypoactivity; also recorded: monophasic hypoactive locomotor response; also recorded: dose-dependent and monophasic inhibition of locomotion

Reference: patent US9289400B2, “D3 dopamine receptor agonists to treat dyskinesia in parkinson's disease” (priority 2010, dated 2016)
